Test results as given in patent US10626144B2, “Peptide derivatives and uses thereof” (Nosopharm, priority 2014, dated 2020).
Like-named read-outs stand apart in the source and are kept apart here. Square brackets hold non-standard residues; d marks the D form. Peptide text beside a SMILES is read from it. * marks the point of attachment. ξ: configuration not given here. Phe(3,4-(OMe)2) = COc1ccc(C[C@H](N)C(=O)O)cc1OC; Abu(4,4,4-F3) = N[C@@H](CC(F)(F)F)C(=O)O; Phe(4-CN) = N#Cc1ccc(C[C@H](N)C(=O)O)cc1; Phe(3-F) = N[C@@H](Cc1cccc(F)c1)C(=O)O; Phe(3-Me) = Cc1cccc(C[C@H](N)C(=O)O)c1; Dab(3S-OH) = NC[C@H](O)[C@H](N)C(=O)O; Phe(2-F) = N[C@@H](Cc1ccccc1F)C(=O)O; Lys(5ξ-OH) = NCC(O)CC[C@H](N)C(=O)O; ΔZArg = N=C(N)NCC/C=C(\N)C(=O)O; dOrn = NCCC[C@@H](N)C(=O)O; NH(CH2)4NH2 = NCCCCN*

What was measured:
[1] = tested on: Pseudomonas aeruginosa ATCC 27853; experiment: MIC, broth microdilution (CLSI), reference strain; conditions: CAMHB
Ec #5 (DSM22315) = experiment: MIC / resistance profile, multidrug-resistant strain; conditions: multidrug-resistant E. coli DSM22315
Ec #3 (EGB957) = experiment: as above; conditions: multidrug-resistant E. coli EGB957
[2] = tested on: Staphylococcus aureus ATCC 13709; experiment: MIC, broth microdilution (CLSI), reference strain; conditions: CAMHB
Ec #1 (NCTC13476) = experiment: MIC / resistance profile, multidrug-resistant strain; conditions: multidrug-resistant E. coli NCTC13476
Ec #2 (MIN) = experiment: as above; conditions: multidrug-resistant E. coli MIN
[3] = tested on: Acinetobacter baumannii ATCC 19606; experiment: MIC, broth microdilution (CLSI), reference strain; conditions: CAMHB
[4] = tested on: Escherichia coli ATCC 25922; experiment: MIC, broth microdilution (CLSI), reference strain; conditions: CAMHB
Ec #4 (GUE) = experiment: MIC / resistance profile, multidrug-resistant strain; conditions: multidrug-resistant E. coli GUE
[5] = target: N-type calcium channels (Cav2.2) (Rattus norvegicus (Rat), UniProt Q02294); experiment: biochemical; assay type: binding
[6] = tested on: Klebsiella pneumoniae ATCC BAA2470; experiment: Murine peritonitis/sepsis model with Odilorhabdin A (Example 13); assay type: in vivo, CD-1 mice
[7] = tested on: Klebsiella pneumoniae ATCC BAA2470; experiment: Murine peritonitis/sepsis model with analog 24.66 (Example 12); conditions: 20 mg/kg i.v. single bolus, N=8
Protocol: Female CD-1 mice (weight, 25 g; Charles River) were used throughout the study. Six groups of 8 mice were inoculated by intraperitoneal (i.p.) injection of 0.5 ml Klebsiella pneumoniae ATCC BAA2470 suspension containing 10^8.1 CFU/ml in 0.9% sterile saline and 5% (wt/vol) mucin. One hour after bacterial challenge on day 0, mice were treated by intravenous (i.v.) route with the antibiotic solutions formulated in 0.9% sterile saline.
One group was administered with single bolus dose of tigecycline at 20 mg/kg. One group received no treatment.

[8] = value in brackets, rat cerebral cortex, [125I]ω-conotoxin GVIA 0.001 nM, read-out: IC50 Cav2.2
[9] = class symbol, rat cerebral cortex, [125I]ω-conotoxin GVIA 0.001 nM, 30 minutes at room temperature, read-out: IC50 Cav2.2

| SMILES | Pa: MIC Pseudomonas aeruginosa ATCC 27853 [1] | MIC Ec#5 (Ec #5 (DSM22315)) | MIC Ec#3 (Ec #3 (EGB957)) | Sa: MIC Staphylococcus aureus ATCC 13709 [2] | MIC Ec#1 (Ec #1 (NCTC13476)) | MIC Ec#2 (Ec #2 (MIN)) | Ab: MIC Acinetobacter baumannii ATCC 19606 [3] | Ec: MIC Escherichia coli ATCC 25922 [4] | MIC Ec#4 (Ec #4 (GUE)) | IC50 [5] [nM] | IC50 [5, 8] [nM] | IC50 [5, 9] [nM] | Alive animals at 24 hrs ([6]; 5 mg/kg i.v. single bolus, n=6) | Alive animals at 24 hrs ([6]; 10 mg/kg i.v. single bolus, n=8) | Alive animals at 24 hrs ([6]; 15 mg/kg i.v. single bolus, n=7) | Alive animals at 24 hrs ([6]; 20 mg/kg i.v. single bolus, n=8) | ED50 ([6]; single i.v. bolus one hour after i.p. challenge, 10^7.7 CFU/ml, observed 24 hours) [mg/kg] | Alive animals at 24 hrs ([6]; 15 mg/kg i.v. single bolus, n=8 (tigecycline)) | Alive animals at 24 hrs [7] |
| --- | --- | --- | --- | --- | --- | --- | --- | --- | --- | --- | --- | --- | --- | --- | --- | --- | --- | --- | --- |
| COc1ccc(C[C@H](NC(=O)[C@@H]2CCCN2C(=O)[C@@H](CCCN)NC(=O)CNC(=O)[C@H](C)NC(=O)[C@@H](NC(=O)[C@@H](N)CCCCN)[C@@H](O)CN)C(=O)N[C@@H](CCCCN)C(=O)N/C(=C\CCNC(=N)N)C(=O)O)cc1OC [24.85] (H-K[Dab(3S-OH)]AG[dOrn]P[Phe(3,4-(OMe)2)]K[ΔZArg]-OH) | − (>32 μg/mL) | + (≤32 μg/mL) | + (≤32 μg/mL) | + (≤32 μg/mL) | ++ (≤8 μg/mL) | + (≤32 μg/mL) | − (>32 μg/mL) | ++ (≤8 μg/mL) | ++ (≤8 μg/mL) | > 300 | 1200 | – | – | – | – | – | – | – | – |
| C[C@H](NC(=O)[C@@H](NC(=O)[C@@H](N)CCCCN)[C@@H](O)CN)C(=O)NCC(=O)N[C@H](CCCN)C(=O)N1CCC[C@H]1C(=O)N[C@@H](Cc1ccc(C#N)cc1)C(=O)N[C@@H](CCCCN)C(=O)N/C(=C\CCNC(=N)N)C(=O)O [24.100] (H-K[Dab(3S-OH)]AG[dOrn]P[Phe(4-CN)]K[ΔZArg]-OH) | − (>32 μg/mL) | + (≤32 μg/mL) | ++ (≤8 μg/mL) | ++ (≤8 μg/mL) | ++ (≤8 μg/mL) | ++ (≤8 μg/mL) | − (>32 μg/mL) | ++ (≤8 μg/mL) | ++ (≤8 μg/mL) | – | – | – | – | – | – | – | – | – | – |
| C[C@H](NC(=O)[C@@H](NC(=O)[C@@H](N)CCCCN)[C@@H](O)CN)C(=O)NCC(=O)N[C@H](CCCN)C(=O)N1CCC[C@H]1C(=O)N[C@@H](CC(F)(F)F)C(=O)N[C@@H](CCCCN)C(=O)N/C(=C\CCNC(=N)N)C(=O)O [24.109] (H-K[Dab(3S-OH)]AG[dOrn]P[Abu(4,4,4-F3)]K[ΔZArg]-OH) | − (>32 μg/mL) | + (≤32 μg/mL) | + (≤32 μg/mL) | ++ (≤8 μg/mL) | + (≤32 μg/mL) | + (≤32 μg/mL) | − (>32 μg/mL) | ++ (≤8 μg/mL) | + (≤32 μg/mL) | > 300 | 1000 | – | – | – | – | – | – | – | – |
| C[C@H](NC(=O)[C@@H](NC(=O)[C@@H](N)CCCCN)[C@@H](O)CN)C(=O)NCC(=O)N[C@H](CCCN)C(=O)N1CCC[C@H]1C(=O)N[C@@H](Cc1ccccc1F)C(=O)N[C@@H](CCCCN)C(=O)N/C(=C\CCNC(=N)N)C(=O)O [24.151] (H-K[Dab(3S-OH)]AG[dOrn]P[Phe(2-F)]K[ΔZArg]-OH) | − (>32 μg/mL) | ++ (≤8 μg/mL) | + (≤32 μg/mL) | ++ (≤8 μg/mL) | + (≤32 μg/mL) | + (≤32 μg/mL) | − (>32 μg/mL) | ++ (≤8 μg/mL) | + (≤32 μg/mL) | – | – | > 300 | – | – | – | – | – | – | – |
| C[C@H](NC(=O)[C@@H](NC(=O)[C@@H](N)CCCCN)[C@@H](O)CN)C(=O)NCC(=O)N[C@H](CCCN)C(=O)N1CCC[C@H]1C(=O)N[C@@H](Cc1cccc(F)c1)C(=O)N[C@@H](CCCCN)C(=O)N/C(=C\CCNC(=N)N)C(=O)O [24.152] (H-K[Dab(3S-OH)]AG[dOrn]P[Phe(3-F)]K[ΔZArg]-OH) | − (>32 μg/mL) | ++ (≤8 μg/mL) | + (≤32 μg/mL) | ++ (≤8 μg/mL) | + (≤32 μg/mL) | + (≤32 μg/mL) | − (>32 μg/mL) | ++ (≤8 μg/mL) | + (≤32 μg/mL) | – | – | > 300 | – | – | – | – | – | – | – |
| Cc1cccc(C[C@H](NC(=O)[C@@H]2CCCN2C(=O)[C@@H](CCCN)NC(=O)CNC(=O)[C@H](C)NC(=O)[C@@H](NC(=O)[C@@H](N)CCCCN)[C@@H](O)CN)C(=O)N[C@@H](CCCCN)C(=O)N/C(=C\CCNC(=N)N)C(=O)O)c1 [24.153] (H-K[Dab(3S-OH)]AG[dOrn]P[Phe(3-Me)]K[ΔZArg]-OH) | − (>32 μg/mL) | ++ (≤8 μg/mL) | ++ (≤8 μg/mL) | ++ (≤8 μg/mL) | ++ (≤8 μg/mL) | ++ (≤8 μg/mL) | − (>32 μg/mL) | ++ (≤8 μg/mL) | + (≤32 μg/mL) | – | – | > 300 | – | – | – | – | – | – | – |
| COc1ccc(C[C@H](NC(=O)[C@@H]2CCCN2C(=O)[C@@H](CCCN)NC(=O)CNC(=O)[C@H](C)NC(=O)[C@@H](NC(=O)[C@@H](N)CCCCN)[C@@H](O)CN)C(=O)N[C@@H](CCCCN)C(=O)N/C(=C\CCNC(=N)N)C(=O)O)cc1 [24.154] (H-K[Dab(3S-OH)]AG[dOrn]PY(Me)K[ΔZArg]-OH) | − (>32 μg/mL) | ++ (≤8 μg/mL) | ++ (≤8 μg/mL) | ++ (≤8 μg/mL) | ++ (≤8 μg/mL) | ++ (≤8 μg/mL) | − (>32 μg/mL) | ++ (≤8 μg/mL) | ++ (≤8 μg/mL) | – | – | > 300 | – | – | – | – | – | – | – |
| C[C@H](NC(=O)[C@@H](NC(=O)[C@@H](N)CCCCN)[C@@H](O)CN)C(=O)NCC(=O)N[C@H](CCCN)C(=O)N1CCC[C@H]1C(=O)N[C@@H](Cc1c[nH]c2ccccc12)C(=O)N[C@@H](CCCCN)C(=O)N/C(=C\CCNC(=N)N)C(=O)O [24.156] (H-K[Dab(3S-OH)]AG[dOrn]PWK[ΔZArg]-OH) | − (>32 μg/mL) | ++ (≤8 μg/mL) | ++ (≤8 μg/mL) | ++ (≤8 μg/mL) | + (≤32 μg/mL) | ++ (≤8 μg/mL) | − (>32 μg/mL) | ++ (≤8 μg/mL) | ++ (≤8 μg/mL) | – | – | – | – | – | – | – | – | – | – |
| N=C(N)NCC/C=C(\NC(=O)[C@H](CCC(O)CN)NC(=O)[C@H](Cc1c[nH]cn1)NC(=O)[C@@H]1CCCN1C(=O)[C@@H](CCCN)NC(=O)CNC(=O)[C@@H](NC(=O)[C@@H](NC(=O)[C@@H](N)CCCCN)[C@@H](O)CN)[C@@H](O)CN)C(=O)N[C@@H](CCC(O)CN)C(=O)NCCCCN (stereo partly drawn) [Odilorhabdin A] (H-K[Dab(3S-OH)][Dab(3S-OH)]G[dOrn]PH[Lys(5ξ-OH)][ΔZArg][Lys(5ξ-OH)]-{NH(CH2)4NH2}; N-terminus and C-terminus assumed) | – | – | – | – | – | – | – | – | – | – | 25 | – | 0 | 2 | 4 | 6 | 13.9 | – | – |
| CN(C)c1cc(NC(=O)CNC(C)(C)C)c(O)c2c1C[C@H]1C[C@H]3[C@H](N(C)C)C(O)=C(C(N)=O)C(=O)[C@@]3(O)C(O)=C1C2=O [Tigecycline, tigecycline, reference compound] | – | – | – | – | – | – | – | – | – | – | – | – | – | – | – | – | – | 8 | 8 |
